# Source: patent US10315996B2, “ROR gamma (RORγ) modulators” (LEAD PHARMA HOLDING B.V., priority 2015, dated 2019)
# Target: T1, RORγ (Homo sapiens, UniProt P51449)
# T1 construct: expressed in transfected cells; host or cells: 293FT cells (Invitrogen), expression vector pFN26A (Promega)
# T1 sequence (P51449 269-508 limits assumed): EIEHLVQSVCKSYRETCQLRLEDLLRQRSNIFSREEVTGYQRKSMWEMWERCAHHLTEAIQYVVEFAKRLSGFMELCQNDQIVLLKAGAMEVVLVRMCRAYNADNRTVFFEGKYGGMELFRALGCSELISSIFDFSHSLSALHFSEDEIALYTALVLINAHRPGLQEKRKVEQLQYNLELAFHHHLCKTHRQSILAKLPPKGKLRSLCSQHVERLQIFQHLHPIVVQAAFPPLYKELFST
# Assay: RORγ GAL4 reporter gene assay
# Assay type: cell-based
# Settings: inhibition of RORγ activity, GAL4-RORγ-LBD luciferase reporter in 293FT cells, overnight incubation; read-out: mean pIC50 (converted)
# In short: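 293FT cells were transiently co-transfected with GAL4-DBD–RORγ-LBD (or GAL4-VP16 control) and a 9×UAS luc2P reporter, then plated at 60,000 cells/well. Compound was added at final 0.2% DMSO for 16-24 h at 37 °C, and inhibition was measured by firefly luciferase luminescence.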
row,Structure (SMILES),IC50
1,"O=C(Cc1ccc(S(=O)(=O)CC2CC2)cc1)Nc1ccc(C(=O)Nc2ccccc2OC(F)(F)F)cc1 [Example 74, 4-[2-(4-cyclopropylmethanesulfonylphenyl)acetamido]-N-[2-(trifluoromethoxy)phenyl]benzamide]",≤ 100 nM
2,"Cc1cccc(C)c1NC(=O)c1ccc(NC(=O)Cc2ccc(S(=O)(=O)CC3CC3)cc2)cc1 [Example 75, 4-[2-(4-cyclopropylmethanesulfonylphenyl)acetamido]-N-(2,6-dimethylphenyl) benzamide]",≤ 100 nM
3,"O=C(Cc1ccc(S(=O)(=O)CC2CC2)cc1)Nc1ccc(C(=O)N[C@H](c2ccc(Cl)cc2)C(F)(F)F)cc1 [Example 76, N-[(1R)-1-(4-chlorophenyl)-2,2,2-trifluoroethyl]-4-[2-(4-cyclopropylmethanesulfonylphenyl)acetamido]benzamide]",≤ 1000 nM
4,"COCCN(C(=O)c1ccc(NC(=O)Cc2ccc(S(=O)(=O)CC3CC3)cc2)cc1)C1CC1 [Example 79, N-cyclopropyl-4-[[2-[4-(cyclopropylmethylsulfonyl)phenyl]acetyl]amino]-N-(2-methoxyethyl)benzamide]",≤ 1000 nM
5,"CCCN(C(=O)c1ccc(NC(=O)Cc2ccc(S(=O)(=O)CC3CC3)cc2)cc1)c1ccsc1 [Example 81, 4-[2-(4-cyclopropylmethanesulfonylphenyl)acetamido]-N-propyl-N-(thiophen-3-yl)benzamide]",≤ 10 nM
6,"CCCCN(C(=O)c1ccc(NC(=O)Cc2ccc(S(=O)(=O)CC3CC3)cc2)cc1)c1nccs1 [Example 82, N-butyl-4-[2-(4-cyclopropylmethanesulfonylphenyl)acetamido]-N-(1,3-thiazol-2-yl)benzamide]",≤ 100 nM
7,"CCCN(C(=O)c1ccc(NC(=O)Cc2ccc(S(=O)(=O)CC3CC3)cc2)cc1)c1nccs1 [Example 83, 4-[2-(4-cyclopropylmethanesulfonylphenyl)acetamido]-N-propyl-N-(1,3-thiazol-2-yl)benzamide]",≤ 10 nM
8,"CCN(C(=O)c1ccc(NC(=O)Cc2ccc(S(=O)(=O)CC3CC3)cc2)cc1)c1nccs1 [Example 84, 4-[2-(4-cyclopropylmethanesulfonylphenyl)acetamido]-N-ethyl-N-(1,3-thiazol-2-yl)benzamide]",≤ 100 nM
9,"CN(C(=O)c1ccc(NC(=O)Cc2ccc(S(=O)(=O)CC3CC3)cc2)cc1)c1nccs1 [Example 85, 4-[2-(4-cyclopropylmethanesulfonylphenyl)acetamido]-N-methyl-N-(1,3-thiazol-2-yl)benzamide]",≤ 1000 nM
10,"CCCN(C(=O)c1ccc(NC(=O)Cc2ccc(S(=O)(=O)CC3CC3)cc2)cc1)c1cc(C)nn1C [Example 86, 4-[2-(4-cyclopropylmethanesulfonylphenyl)acetamido]-N-(1,3-dimethyl-1H-pyrazol-5-yl)-N-propylbenzamide]",≤ 10 nM
11,"CCCN(C(=O)c1ccc(NC(=O)Cc2ccc(S(=O)(=O)CC3CC3)cc2)cc1)c1cc(C)on1 [Example 87, 4-[2-(4-cyclopropylmethanesulfonylphenyl)acetamido]-N-(5-methyl-1,2-oxazol-3-yl)-N-propylbenzamide]",≤ 10 nM
12,"CCN(C(=O)c1ccc(NC(=O)Cc2ccc(S(=O)(=O)CC3CC3)cc2)cc1)c1cc(C)nn1C [Example 88, 4-[2-(4-cyclopropylmethanesulfonylphenyl)acetamido]-N-(1,3-dimethyl-1H-pyrazol-5-yl)-N-ethylbenzamide]",≤ 10 nM

# The remaining lines, values ahead:
row,IC50,Structure (SMILES)
1,≤ 10 nM,"CCN(C(=O)c1ccc(NC(=O)Cc2ccc(S(=O)(=O)CC3CC3)cc2)cc1)c1cc(C)on1 [Example 89, 4-[2-(4-cyclopropylmethanesulfonylphenyl)acetamido]-N-ethyl-N-(5-methyl-1,2-oxazol-3-yl)benzamide]"
2,≤ 10 nM,"Cc1cc(N(C)C(=O)c2ccc(NC(=O)Cc3ccc(S(=O)(=O)CC4CC4)cc3)cc2)no1 [Example 90, 4-[2-(4-cyclopropylmethanesulfonylphenyl)acetamido]-N-methyl-N-(5-methyl-1,2-oxazol-3-yl)benzamide]"
3,≤ 1000 nM,"Cc1cc(N(C)C(=O)c2ccc(NC(=O)Cc3ccc(S(=O)(=O)NC4CC4)cc3)cc2)no1 [Example 91, 4-{2-[4-(cyclopropylsulfamoyl)phenyl]acetamido}-N-methyl-N-(5-methyl-1,2-oxazol-3-yl)benzamide]"
4,≤ 10 nM,"CCCN(C(=O)c1ccc(NC(=O)Cc2ccc(S(=O)(=O)NC3CC3)cc2)cc1)c1cc(C)nn1C [Example 92, 4-{2-[4-(cyclopropylsuIfamoyl)phenyl]acetamido}-N-(1,3-dimethyl-1H-pyrazol-5-yl)-N-propylbenzamide]"
5,≤ 10 nM,"CCCN(C(=O)c1ccc(NC(=O)Cc2ccc(S(=O)(=O)NC3CC3)cc2)cc1)c1cc(C)on1 [Example 93, 4-{2-[4-(cyclopropylsulfamoyl)phenyl]acetamido}-N-(5-methyl-1,2-oxazol-3-yl)-N-propylbenzamide]"
6,≤ 10 nM,"CCN(C(=O)c1ccc(NC(=O)Cc2ccc(S(=O)(=O)CC3CC3)cc2)cc1)c1cc(C)no1 [Example 94, 4-[2-(4-cyclopropylmethanesulfonylphenyl)acetamido]-N-ethyl-N-(3-methyl-1,2-oxazol-5-yl)benzamide]"
7,≤ 100 nM,"CCN(C(=O)c1ccc(NC(=O)Cc2ccc(S(=O)(=O)NC3CC3)cc2)cc1)c1cc(C)no1 [Example 95, 4-{2-[4-(cyclopropylsulfamoyl)phenyl]acetamido}-N-ethyl-N-(3-methyl-1,2-oxazol-5-yl)benzamide]"
8,≤ 100 nM,"CCN(C(=O)c1ccc(NC(=O)Cc2ccc(S(=O)(=O)CC3CC3)cc2)cc1)c1nnc(C)s1 [Example 96, 4-[2-(4-cyclopropylmethanesulfonylphenyl)acetamido]-N-ethyl-N-(5-methyl-1,3,4-thiadiazol-2-yl)benzamide]"
9,≤ 1000 nM,"CCN(C(=O)c1ccc(NC(=O)Cc2ccc(S(=O)(=O)NC3CC3)cc2)cc1)c1nnc(C)s1 [Example 97, 4-{2-[4-(cyclopropylsulfamoyl)phenyl]acetamido}-N-ethyl-N-(5-methyl-1,3,4-thiadiazol-2-yl)benzamide]"
10,≤ 10 nM,"CCN(C(=O)c1ccc(NC(=O)Cc2ccc(S(=O)(=O)CC3CC3)cc2)cc1F)c1ccccc1 [Example 99, 4-[2-(4-cyclopropylmethanesulfonylphenyl)acetamido]-N-ethyl-2-fluoro-N-phenylbenzamide]"
11,≤ 100 nM,"CCN(C(=O)c1ccc(NC(=O)Cc2ccc(S(=O)(=O)CC3CC3)cc2)cc1Cl)c1ccccc1 [Example 100, 2-chloro-4-[2-(4-cyclopropylmethanesulfonylphenyl)acetamido]-N-ethyl-N-phenylbenzamide]"
12,≤ 1000 nM,"CCN(C(=O)c1ccc(NC(=O)Cc2ccc(S(=O)(=O)CC3CC3)cc2)c(OC)c1)c1ccccc1 [Example 101, 4-[2-(4-cyclopropylmethanesulfonylphenyl)acetamido]-N-ethyl-3-methoxy-N-phenylbenzamide]"
13,≤ 10 nM,"CCN(C(=O)c1ccc(NC(=O)Cc2ccc(S(=O)(=O)CC3CC3)cc2)c(F)c1)c1ccccc1 [Example 102, 4-[2-(4-cyclopropylmethanesulfonylphenyl)acetamido]-N-ethyl-3-fluoro-N-phenylbenzamide]"
14,≤ 10 nM,"O=C(Cc1ccc(S(=O)(=O)CC2CC2)cc1)Nc1ccc(C(=O)N(CC(F)(F)F)c2ccccc2)cc1 [Example 104, 4-[2-(4-cyclopropylmethanesulfonylphenyl)acetamido]-N-phenyl-N-(2,2,2-trifluoroethyl)benzamide]"
